Measured values reported in ChEMBL document CHEMBL4138123, “Design, synthesis and biological evaluation of novel pyrazolochalcones as potential modulators of PI3K/Akt/mTOR pathway and inducers of apoptosis in breast cancer cells” (Eur J Med Chem, 2017).

Experiments:
Format in all cases: functional
CAKI-1 [1] = assay: Cytotoxicity against human Caki1 cells assessed as cell growth at 10 uM after 48 hrs by sulforhodamine B assay relative to control; settings: CAKI-1, 48 h, read-out: Activity
CAKI-1 [2] = assay: Cytotoxicity against human Caki1 cells assessed as cell growth at 0.01 uM after 48 hrs by sulforhodamine B assay relative to control; settings: CAKI-1, 48 h, read-out: Activity
SF-295 [3] = assay: Cytotoxicity against human SF295 cells assessed as cell growth at 1 uM after 48 hrs by sulforhodamine B assay relative to control; settings: SF-295, 48 h, read-out: Activity
SF-295 [4] = assay: Cytotoxicity against human SF295 cells assessed as cell growth at 0.1 uM after 48 hrs by sulforhodamine B assay relative to control; settings: SF-295, 48 h, read-out: Activity
CAKI-1 [5] = assay: Cytotoxicity against human Caki1 cells assessed as cell growth at 1 uM after 48 hrs by sulforhodamine B assay relative to control; settings: CAKI-1, 48 h, read-out: Activity
SF-295 [6] = assay: Cytotoxicity against human SF295 cells assessed as cell growth at 100 uM after 48 hrs by sulforhodamine B assay relative to control; settings: SF-295, 48 h, read-out: Activity
SNB-75 [7] = assay: Cytotoxicity against human SNB75 cells assessed as cell growth at 0.1 uM after 48 hrs by sulforhodamine B assay relative to control; settings: SNB-75, 48 h, read-out: Activity
CAKI-1 [8] = assay: Cytotoxicity against human Caki1 cells assessed as cell growth at 100 uM after 48 hrs by sulforhodamine B assay relative to control; settings: CAKI-1, 48 h, read-out: Activity
SNB-75 [9] = assay: Cytotoxicity against human SNB75 cells assessed as cell growth at 100 uM after 48 hrs by sulforhodamine B assay relative to control; settings: SNB-75, 48 h, read-out: Activity
SNB-75 [10] = assay: Cytotoxicity against human SNB75 cells assessed as cell growth at 1 uM after 48 hrs by sulforhodamine B assay relative to control; settings: SNB-75, 48 h, read-out: Activity
SF-295 [11] = assay: Cytotoxicity against human SF295 cells assessed as cell growth at 10 uM after 48 hrs by sulforhodamine B assay relative to control; settings: SF-295, 48 h, read-out: Activity
SF-295 [12] = assay: Cytotoxicity against human SF295 cells assessed as growth inhibition after 48 hrs by sulforhodamine B assay; settings: SF-295, 48 h
SNB-75 [13] = assay: Cytotoxicity against human SNB75 cells assessed as cell growth at 0.01 uM after 48 hrs by sulforhodamine B assay relative to control; settings: SNB-75, 48 h, read-out: Activity
CAKI-1 [14] = assay: Cytotoxicity against human Caki1 cells assessed as cell growth at 0.1 uM after 48 hrs by sulforhodamine B assay relative to control; settings: CAKI-1, 48 h, read-out: Activity
SNB-75 [15] = assay: Cytotoxicity against human SNB75 cells assessed as growth inhibition after 48 hrs by sulforhodamine B assay; settings: SNB-75, 48 h
SF-295 [16] = assay: Cytotoxicity against human SF295 cells assessed as cell growth at 0.01 uM after 48 hrs by sulforhodamine B assay relative to control; settings: SF-295, 48 h, read-out: Activity
CAKI-1 [17] = assay: Cytotoxicity against human Caki1 cells assessed as growth inhibition after 48 hrs by sulforhodamine B assay; settings: CAKI-1, 48 h
SNB-75 [18] = assay: Cytotoxicity against human SNB75 cells assessed as cell growth at 10 uM after 48 hrs by sulforhodamine B assay relative to control; settings: SNB-75, 48 h, read-out: Activity
HOP-92 [19] = assay: Cytotoxicity against human HOP92 cells assessed as cell growth at 10 uM after 48 hrs by sulforhodamine B assay relative to control; settings: HOP-92, 48 h, read-out: Activity
SK-MEL-2 [20] = assay: Cytotoxicity against human SK-MEL-2 cells assessed as cell growth at 0.1 uM after 48 hrs by sulforhodamine B assay relative to control; settings: SK-MEL-2, 48 h, read-out: Activity
HOP-92 [21] = assay: Cytotoxicity against human HOP92 cells assessed as cell growth at 0.1 uM after 48 hrs by sulforhodamine B assay relative to control; settings: HOP-92, 48 h, read-out: Activity
LOX IMVI [22] = assay: Cytotoxicity against human LOXIMVI cells assessed as cell growth at 0.01 uM after 48 hrs by sulforhodamine B assay relative to control; settings: read-out: Activity
HOP-92 [23] = assay: Cytotoxicity against human HOP92 cells assessed as cell growth at 100 uM after 48 hrs by sulforhodamine B assay relative to control; settings: HOP-92, 48 h, read-out: Activity
HOP-92 [24] = assay: Cytotoxicity against human HOP92 cells assessed as cell growth at 1 uM after 48 hrs by sulforhodamine B assay relative to control; settings: HOP-92, 48 h, read-out: Activity
SK-MEL-2 [25] = assay: Cytotoxicity against human SK-MEL-2 cells assessed as cell growth at 100 uM after 48 hrs by sulforhodamine B assay relative to control; settings: SK-MEL-2, 48 h, read-out: Activity
LOX IMVI [26] = assay: Cytotoxicity against human LOXIMVI cells assessed as cell growth at 100 uM after 48 hrs by sulforhodamine B assay relative to control; settings: read-out: Activity
SK-MEL-2 [27] = assay: Cytotoxicity against human SK-MEL-2 cells assessed as cell growth at 0.01 uM after 48 hrs by sulforhodamine B assay relative to control; settings: SK-MEL-2, 48 h, read-out: Activity
LOX IMVI [28] = assay: Cytotoxicity against human LOXIMVI cells assessed as cell growth at 0.1 uM after 48 hrs by sulforhodamine B assay relative to control; settings: read-out: Activity
LOX IMVI [29] = assay: Cytotoxicity against human LOXIMVI cells assessed as cell growth at 1 uM after 48 hrs by sulforhodamine B assay relative to control; settings: read-out: Activity
SK-MEL-2 [30] = assay: Cytotoxicity against human SK-MEL-2 cells assessed as cell growth at 1 uM after 48 hrs by sulforhodamine B assay relative to control; settings: SK-MEL-2, 48 h, read-out: Activity
HOP-92 [31] = assay: Cytotoxicity against human HOP92 cells assessed as cell growth at 0.01 uM after 48 hrs by sulforhodamine B assay relative to control; settings: HOP-92, 48 h, read-out: Activity
LOX IMVI [32] = assay: Cytotoxicity against human LOXIMVI cells assessed as cell growth at 10 uM after 48 hrs by sulforhodamine B assay relative to control; settings: read-out: Activity
SK-MEL-2 [33] = assay: Cytotoxicity against human SK-MEL-2 cells assessed as cell growth at 10 uM after 48 hrs by sulforhodamine B assay relative to control; settings: SK-MEL-2, 48 h, read-out: Activity
HOP-92 [34] = assay: Cytotoxicity against human HOP92 cells assessed as growth inhibition after 48 hrs by sulforhodamine B assay; settings: HOP-92, 48 h; for CC50: read-out: LC50 (the source's name)

| SMILES | growth at 10 µM (CAKI-1 [1]) [%] | growth at 0.01 µM (CAKI-1 [2]) [%] | growth at 1 µM (SF-295 [3]) [%] | growth at 0.1 µM (SF-295 [4]) [%] | growth at 1 µM (CAKI-1 [5]) [%] | growth at 100 µM (SF-295 [6]) [%] | growth at 0.1 µM (SNB-75 [7]) [%] | growth at 100 µM (SNB-75 [9]) [%] | growth at 1 µM (SNB-75 [10]) [%] | growth at 10 µM (SF-295 [11]) [%] | GI50 (SF-295 [12]) [µM] | LC50 (SF-295 [12]) [µM] | TGI (SF-295 [12]) [µM] | growth at 0.01 µM (SNB-75 [13]) [%] | GI50 (SNB-75 [15]) [µM] | LC50 (concentration killing 50% of cells) (SNB-75 [15]) [µM] | TGI (SNB-75 [15]) [µM] | growth at 0.01 µM (SF-295 [16]) [%] | growth at 10 µM (SNB-75 [18]) [%] | GI50 (HOP-92 [34]) [µM] | other results |
| --- | --- | --- | --- | --- | --- | --- | --- | --- | --- | --- | --- | --- | --- | --- | --- | --- | --- | --- | --- | --- | --- |
| COc1ccc(-c2cc(/C=C/C(=O)c3ccc(N)cc3)[nH]n2)cc1 | 3 | 95 | 88 | 95 | 56 | -76 | 88 | -96 | 74 | 10 | 3.09 | 49.6 | 13.1 | 85 | 2.25 | 35.3 | 11.4 | 93 | 6 |  | growth at 100 µM (CAKI-1 [8]): -63%; growth at 0.1 µM (CAKI-1 [14]): 97%; GI50 (CAKI-1 [17]): 1.32 µM; LC50 (CAKI-1 [17]): 64.3 µM; TGI (CAKI-1 [17]): 11.1 µM |
| COc1ccc(-c2cc(/C=C/C(=O)c3cc(OC)c(OC)c(OC)c3)[nH]n2)cc1OC |  |  | 77 | 87 |  | -91 | 77 | -82 | 63 | -46 | 1.67 | 12.5 | 4.26 | 88 | 1.31 | 12.7 | 3.77 | 97 | -46 | 1.61 | growth at 10 µM (HOP-92 [19]): -25%; growth at 0.1 µM (SK-MEL-2 [20]): 95%; growth at 0.1 µM (HOP-92 [21]): 74%; growth at 0.01 µM (LOX IMVI [22]): 96%; growth at 100 µM (HOP-92 [23]): -84%; growth at 1 µM (HOP-92 [24]): 70%; growth at 100 µM (SK-MEL-2 [25]): -92%; growth at 100 µM (LOX IMVI [26]): -69%; growth at 0.01 µM (SK-MEL-2 [27]): 100%; growth at 0.1 µM (LOX IMVI [28]): 94%; growth at 1 µM (LOX IMVI [29]): 78%; growth at 1 µM (SK-MEL-2 [30]): 97%; growth at 0.01 µM (HOP-92 [31]): 103%; growth at 10 µM (LOX IMVI [32]): -91%; growth at 10 µM (SK-MEL-2 [33]): -12%; TGI (HOP-92 [34]): 5.48 µM; CC50 (HOP-92 [34]): 26.6 µM |
| COc1ccc(C(=O)/C=C/c2cc(-c3ccc(OC)c(OC)c3)n[nH]2)cc1OC |  |  | 70 | 90 |  | -57 | 89 | -82 | 58 | -30 | 1.6 |  | 5.05 | 82 | 1.16 |  | 2.96 | 85 | -65 | 1.97 | growth at 10 µM (HOP-92 [19]): -7%; growth at 0.1 µM (SK-MEL-2 [20]): 113%; growth at 0.1 µM (HOP-92 [21]): 81%; growth at 0.01 µM (LOX IMVI [22]): 100%; growth at 100 µM (HOP-92 [23]): -15%; growth at 1 µM (HOP-92 [24]): 74%; growth at 100 µM (SK-MEL-2 [25]): -58%; growth at 100 µM (LOX IMVI [26]): -91%; growth at 0.01 µM (SK-MEL-2 [27]): 110%; growth at 0.1 µM (LOX IMVI [28]): 99%; growth at 1 µM (LOX IMVI [29]): 68%; growth at 1 µM (SK-MEL-2 [30]): 111%; growth at 0.01 µM (HOP-92 [31]): 83%; growth at 10 µM (LOX IMVI [32]): -89%; growth at 10 µM (SK-MEL-2 [33]): -44%; TGI (HOP-92 [34]): 8.12 µM; CC50 (HOP-92 [34]): > 100 µM |
| COc1cc2c(cc1OC)C(=O)/C(=C/c1cc(-c3ccc4c(c3)OCO4)n[nH]1)C2 | -87 | 98 | 86 | 95 | 79 | -93 | 94 | -96 | 92 | -81 | 1.64 | 6.5 | 3.26 | 85 | 1.65 | 5.51 | 3.02 | 95 | -100 |  | growth at 100 µM (CAKI-1 [8]): -81%; growth at 0.1 µM (CAKI-1 [14]): 97%; GI50 (CAKI-1 [17]): 1.5 µM; LC50 (CAKI-1 [17]): 6 µM; TGI (CAKI-1 [17]): 3 µM |
| COc1ccc(-c2cc(/C=C/C(=O)c3ccc4c(c3)OCO4)[nH]n2)cc1OC |  |  |  |  |  |  |  |  |  |  | 1.6 |  |  |  | 1.16 |  |  |  |  | 1.97 |  |
